# Laboratory results as given in PubChem BioAssay (NCI).
#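 48-hour exposure; five concentrations; linearly interpolated endpoints. At the TGI there is no net growth.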
# Columns and labels:
# Experiment in all cases: NCI tumour cell line growth inhibition, 48 h
# MALME-3M melanoma = test system: MALME-3M melanoma
# ACHN renal = test system: ACHN renal
# SF-295 CNS = test system: SF-295 CNS
# OVCAR-4 ovarian = test system: OVCAR-4 ovarian
# HS 578T breast = test system: HS 578T breast
# SK-MEL-2 melanoma = test system: SK-MEL-2 melanoma
# SNB-19 CNS = test system: SNB-19 CNS
# MDA-N = test system: MDA-N
# MCF7 breast = test system: MCF7 breast
# NCI-H460 lung = test system: NCI-H460 lung
# NCI-H23 lung = test system: NCI-H23 lung
# PC-3 prostate = test system: PC-3 prostate
# MOLT-4 leukemia = test system: MOLT-4 leukemia
# UACC-62 melanoma = test system: UACC-62 melanoma
# M14 melanoma = test system: M14 melanoma
# HOP-62 NSCLC = test system: HOP-62 NSCLC
# TK-10 renal = test system: TK-10 renal
SMILES,TGI (MALME-3M melanoma) [µM],TGI (ACHN renal) [µM],TGI (SF-295 CNS) [µM],TGI (OVCAR-4 ovarian) [µM],TGI (HS 578T breast) [µM],TGI (SK-MEL-2 melanoma) [µM],TGI (SNB-19 CNS) [µM],TGI (MDA-N) [µM],TGI (MCF7 breast) [µM],TGI (NCI-H460 lung) [µM],TGI (NCI-H23 lung) [µM],TGI (PC-3 prostate) [µM],TGI (MOLT-4 leukemia) [µM],TGI (UACC-62 melanoma) [µM],TGI (M14 melanoma) [µM],TGI (HOP-62 NSCLC) [µM],TGI (TK-10 renal) [µM]
CC(=O)Nc1ccc2cc3[nH]c4cc(NC(C)=O)ccc4c3nc2c1,> 100,> 100,> 100,> 100,> 100,> 100,> 100,> 100,> 100,> 100,> 100,> 100,77.3,> 100,> 100,> 100,> 100
Cc1cc2c(cc1C)C(=O)/C(=N/Nc1ccc(F)cc1)CCO2,> 100,> 100,> 100,> 100,> 100,97,> 100,> 100,> 100,> 100,> 100,> 100,> 100,> 100,> 100,> 100,> 100
O=c1[nH]c(=O)n(C/C=C/CBr)nc1Br,27.5,25.8,31.1,22.9,53.8,26,28.1,27.5,22.2,37,25.5,24.6,43.3,27.3,27.6,37.9,31.7
CCC1=NC(C(F)(F)F)(C(F)(F)F)N=C(/N=C(/N)N(C)C(C(C)C)P(=O)(OC(C)C)OC(C)C)O1 (configuration not stated),> 100,> 100,> 100,> 100,> 100,> 100,> 100,> 100,> 100,> 100,> 100,> 100,> 100,> 100,> 100,> 100,> 100
O=C(N/N=C(/COc1cccc(Cl)c1)N=Cc1cccnc1)c1ccncc1,> 100,> 100,> 100,> 100,> 100,> 100,> 100,> 100,> 100,> 100,> 100,> 100,> 100,> 100,> 100,> 100,> 100
C[C@]12CC/C(=N\OCCN3CCCCC3)C=C1CCC1C2CC[C@@]2(C)C1CC[C@]2(C)O (some centres not stated),23.2,39.6,14.3,76,32.1,28.8,30,11.7,71.7,17.5,33.5,49.5,6.84,24.8,37.7,43.7,34
NC(=S)NS(=O)(=O)c1ccc(F)cc1F,> 100,> 100,> 100,> 100,> 100,> 100,> 100,> 100,> 100,> 100,> 100,> 100,> 100,> 100,> 100,> 100,> 100
Oc1ccc(-c2cn3cc(C(F)(F)F)ccc3n2)cc1,> 100,> 100,> 100,> 100,> 100,> 100,> 100,> 100,> 100,> 100,> 100,> 100,> 100,> 100,> 100,> 100,> 100
O=C(CCOS(=O)(=O)CF)N1CCN(C(=O)CCOS(=O)(=O)CF)CC1,> 100,> 88.7,> 46.4,> 100,> 100,> 100,> 100,> 100,> 100,> 100,> 100,> 100,36.3,> 100,> 100,> 100,> 100
CC(NC(NC(C)C12CC3CC(CC(C3)C1)C2)=C(C(Cl)=C(Cl)Cl)[N+](=O)[O-])C12CC3CC(CC(C3)C1)C2 (configuration not stated),> 95.6,> 100,> 100,> 100,53.9,> 67.6,> 100,> 100,> 58.7,21.8,34.3,> 65.2,> 100,> 100,48.7,> 100,> 100
O=C1C(Cl)=C(N2CCN(c3ccccn3)CC2)C(=O)c2ncccc21,3.21,5.52,18.8,3.33,5.95,4.02,25,3.51,3.21,13.4,5.47,7.52,4.09,5.52,3,25.6,9.75
